According to PubChem BioAssay AID1963871 (Molecular Pharmacology Branch, DTP, NCI, 2024):

Tested on: KRAS-mutant PDC multicell tumor spheroid viability
Experiment: Anticancer human tumor 521955-158-R2-J5-PDC patient-derived pancreatic carcinoma cell line growth inhibition [KRAS2]
Conditions: for viability, T/C: stronger effect = lower value; active = viability on the fitted dose curve at most 10% of control; inactive = the rest
Procedure, shortened: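 Combination screen of spheroid viability in tumor-cell co-cultures with endothelial (HUVEC) and mesenchymal stem cell stroma. Each agent was tested in half-log dilutions, topping at clinical Cmax or at 10 microM without a known Cmax.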

[1] = curve of first compound, second compound 0.1 µM
[2] = curve of first compound, second compound 0.316 µM
[3] = curve of first compound, second compound 1 µM
[4] = curve of first compound, second compound 3.16 µM
[5] = curve of first compound, second compound 10 µM
[6] = second compound 0.1 µM, first compound 0.0316 µM
[7] = second compound 0.1 µM, first compound 0.1 µM
[8] = second compound 0.1 µM, first compound 0.316 µM
[9] = second compound 0.1 µM, first compound 1 µM
[10] = second compound 0.1 µM, first compound 3.16 µM
[11] = second compound 0.1 µM, first compound 10 µM
[12] = second compound 0.316 µM, first compound 0.0316 µM
[13] = second compound 0.316 µM, first compound 0.1 µM
[14] = second compound 0.316 µM, first compound 0.316 µM
[15] = second compound 0.316 µM, first compound 1 µM
[16] = second compound 0.316 µM, first compound 3.16 µM
[17] = second compound 0.316 µM, first compound 10 µM
[18] = second compound 1 µM, first compound 0.0316 µM
[19] = second compound 1 µM, first compound 0.1 µM
[20] = second compound 1 µM, first compound 0.316 µM
[21] = second compound 1 µM, first compound 1 µM
[22] = second compound 1 µM, first compound 3.16 µM
[23] = second compound 1 µM, first compound 10 µM
[24] = second compound 3.16 µM, first compound 0.0316 µM
[25] = second compound 3.16 µM, first compound 0.1 µM
[26] = second compound 3.16 µM, first compound 0.316 µM
[27] = second compound 3.16 µM, first compound 1 µM
[28] = second compound 3.16 µM, first compound 3.16 µM
[29] = second compound 3.16 µM, first compound 10 µM
[30] = second compound 10 µM, first compound 0.0316 µM
[31] = second compound 10 µM, first compound 0.1 µM
[32] = second compound 10 µM, first compound 0.316 µM
[33] = second compound 10 µM, first compound 1 µM
[34] = second compound 10 µM, first compound 3.16 µM
[35] = second compound 10 µM, first compound 10 µM
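Note: viability read after seven days of drug exposure.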

CC1OCC2(CCN(c3cnc(Sc4ccnc(N)c4Cl)c(N)n3)CC2)C1N (configuration not stated) + CNCc1ccccc1-c1csc(C(C)Nc2nc(C)nc3cc(OC)c(OC)cc23)c1
active: viability, T/C [24] 0.27% | viability, T/C [25] 0.18% | viability, T/C [26] 0.19% | viability, T/C [27] 0.2% | viability, T/C [28] 0.36% | viability, T/C [29] 0.31% | viability, T/C [30] 0.15% | viability, T/C [31] 0.14% | viability, T/C [32] 0.15% | viability, T/C [33] 0.13% | viability, T/C [34] 0.14% | viability, T/C [35] 0.21%
< 0.0316 µM: IC50 [4] | IC50 [5]
inactive: viability, T/C [6] 86.5% | viability, T/C [7] 83.1% | viability, T/C [8] 85.6% | viability, T/C [9] 74.4% | viability, T/C [10] 67% | viability, T/C [11] 70.7% | viability, T/C [12] 90.2% | viability, T/C [13] 85.2% | viability, T/C [14] 68.5% | viability, T/C [15] 77.3% | viability, T/C [16] 75.4% | viability, T/C [17] 73.1% | viability, T/C [18] 90.6% | viability, T/C [19] 83.5% | viability, T/C [20] 76.8% | viability, T/C [21] 70% | viability, T/C [22] 68.4% | viability, T/C [23] 75%
> 10 µM: IC50 [1] | IC50 [2] | IC50 [3]

O=C(c1cc(Cc2n[nH]c(=O)c3ccccc23)ccc1F)N1CCN(C(=O)C2CC2)CC1
inactive: viability, T/C (compound 0.0316 µM) 99% [middle of 5 runs] | viability, T/C (compound 0.1 µM) 95.1% [middle of 5 runs] | viability, T/C (compound 0.316 µM) 93.8% [middle of 5 runs] | viability, T/C (compound 1 µM) 94.8% [middle of 5 runs] | viability, T/C (compound 3.16 µM) 89.3% [middle of 5 runs] | viability, T/C (compound 10 µM) 61% [middle of 5 runs]
> 10 µM: IC50 (curve of compound)

COc1cc2nccc(Oc3ccc(NC(=O)C4(C(=O)Nc5ccc(F)cc5)CC4)cc3)c2cc1OC + CNCc1ccccc1-c1csc(C(C)Nc2nc(C)nc3cc(OC)c(OC)cc23)c1
inactive: viability, T/C [6] 92.7% | viability, T/C [7] 94.2% | viability, T/C [8] 94.5% | viability, T/C [9] 92.2% | viability, T/C [10] 70.7% | viability, T/C [11] 39.4% | viability, T/C [12] 94.6% | viability, T/C [13] 101% | viability, T/C [14] 95.9% | viability, T/C [15] 115% | viability, T/C [16] 75.7% | viability, T/C [17] 31.9% | viability, T/C [18] 98.8% | viability, T/C [19] 99.9% | viability, T/C [20] 114% | viability, T/C [21] 99.6% | viability, T/C [22] 57.7%
3.7 µM: IC50 [3]
6.2 µM: IC50 [2]
6.77 µM: IC50 [1]
< 0.0316 µM: IC50 [4] | IC50 [5]
active: viability, T/C [23] 2.02% | viability, T/C [24] 0.62% | viability, T/C [25] 0.34% | viability, T/C [26] 0.41% | viability, T/C [27] 0.52% | viability, T/C [28] 0.39% | viability, T/C [29] 0.4% | viability, T/C [30] 0.2% | viability, T/C [31] 0.12% | viability, T/C [32] 0.63% | viability, T/C [33] 0.12% | viability, T/C [34] 0.23% | viability, T/C [35] 0.19%
